Laboratory results: patent publication US20050203175A1, “Parenteral composition of paracetamol” (priority 2001, published 2005)

Experiments:
[1] = cited from earlier work
[2] = cited from earlier work; remark: listed apart in the source
[3] = Solubility in water and organic solvents; type: physicochemical
Text: Paracetamol is soluble in Methanol, Ethanol, DMF, Ethylene chlorine, Benzyl ethanol and other organic solvents, but none of them can be used alone or in a mixture, because of their toxicity.

liver cytochrome P-450 = conditions: in vivo; cited from earlier work

solubility in organic solvents ([3]; Methanol, Ethanol, DMF, Ethylene chlorine, Benzyl ethanol and other organic solvents): soluble | solubility in water ([3]; water): practically insoluble
SMILES: CC(=O)Nc1ccc(O)cc1 [Paracetamol]
absorption when intramuscularly administered ([1]; intramuscular, blood level similar to that after oral administration): well absorbed | loss of the drug observed after oral administration ([1]; oral administration, does not exist with injectable Paracetamol): 20% | excreted through urines as conjugated derivative of glucouronic acid ([2]; glucouronic acid conjugate): 60% | excreted through urines as conjugated derivative of sulfuric acid ([2]; sulfuric acid conjugate): 35% | excreted through urines as conjugated derivatives ([2]; total of sulfuric and glucouronic acid conjugates): 95% | excreted unchangeable ([2]; unchanged drug): 2% | part oxidized by the liver cytochrome P-450 to a toxic intermediate metabolite (liver cytochrome P-450): approx. 3%
